Data as given in patent US3935309A, “Synergistic combinations of phosphonomycin and bacteriostatic agents” (Merck & Co., Inc., priority 1974, dated 1976).

Columns and labels:
pathogenic bacteria = experiment: in vitro combination tests with various pathogens (general description); type: cell-based; conditions: various strains of pathogenic bacteria
Excerpt: Other experimental results have shown that novobiocin, chlortetracycline and sulfisoxazole are potentiated when combined with phosphonomycin and tested with various strains of pathogenic bacteria.

Staphylococcus aureus = experiment: criss-cross MIC method in nutrient broth (Example 2); type: cell-based; conditions: 37°C, 24 hours, two experiments on different days
Procedure: This method involved the simultaneous determination of the MIC (minimum inhibitory concentration) of each member of a pair of antibiotics and of combinations of the two in nutrient broth (NB) containing 0.2% yeast extract (YE). Serial two-fold dilutions were made throughout the experiment, and the starting inoculum consisted of approximately 25,000 cells/ml. of Staphylococcus aureus. Incubation was at 37°C. for 24 hours. Identical experiments were performed on two different days.

Escherichia coli 2017 = experiment: Combined antibiotic therapy of Escherichia coli infection in mice (Example 5); type: in vivo, mice infected with Escherichia coli 2017; set-up: ED50: unit not given beside the values; conditions: for ED50 / % of effective dose: first test
Excerpt: (§1) For example, using Escherichia coli 2017 as the infecting agent, sodium phosphonomycin was titrated alone and in the presence 5 and also in the presence of 0.5γtetracycline, while tetracycline was titrated alone and in the presence of 50γ, and also in the presence of 5γof sodium phosphonomycin. The two drugs were given by the subcutaneous route at separate sites on the ventral surface of the mouse. Such therapy was given only at the time of infection for the Escherichia coli and Pseudomonas aeruginosa tests but both at the time of infection and 6 hours later for all other tests. Infection was given intraperitoneally using broth suspensions of the test organism.

[1] = system: Streptococcus pyogenes 3009; experiment: Combined antibiotic therapy of experimental infection in mice (Example 5); type: in vivo, mice infected with Streptococcus pyogenes 3009; conditions: 6 LD50
Excerpt: as §1

[2] = chloramphenicol repeat test, 7 LD50, chloramphenicol titrated, phosphonomycin constant 5
[3] = chloramphenicol repeat test, 7 LD50, chloramphenicol titrated, phosphonomycin constant 50
[4] = chloramphenicol test 1, 9 LD50, chloramphenicol titrated, phosphonomycin constant 10
[5] = chloramphenicol test 1, 9 LD50, chloramphenicol titrated, phosphonomycin constant 100
[6] = tetracycline titrated, phosphonomycin constant 500
[7] = tetracycline titrated, phosphonomycin constant 1000
[8] = tetracycline repeat test, 7 LD50, tetracycline titrated, phosphonomycin constant 0.5
[9] = tetracycline repeat test, 7 LD50, tetracycline titrated, phosphonomycin constant 50
[10] = tetracycline test 1, 9 LD50, alone
[11] = tetracycline test 1, 9 LD50, tetracycline titrated, phosphonomycin constant 5
[12] = tetracycline test 1, 9 LD50, tetracycline titrated, phosphonomycin constant 50

For Cc1noc(NS(=O)(=O)c2ccc(N)cc2)c1C [sulfisoxazole], the “potentiation when combined with phosphonomycin” value (pathogenic bacteria) was “potentiated”.

In the case of O=C(N[C@H](CO)[C@H](O)c1ccc([N+](=O)[O-])cc1)C(Cl)Cl [Chloramphenicol], the MIC (Staphylococcus aureus; Staphylococcus aureus, 24 h, read-out: CLM MIC, alone) is reported as 7.8 µg/mL, the “CLM MIC” value (Staphylococcus aureus; alone, listed as CLM) is reported as 3.9 µg/mL and the “% ED50” value (Escherichia coli 2017; chloramphenicol repeat test, 7 LD50, alone) is reported as 100%. The “s.c. ED50” value (Escherichia coli 2017; chloramphenicol repeat test, 7 LD50, alone, single dose at 0 hour, phosphonomycin as sodium salt) was 120 µg, the “% ED50” value (Escherichia coli 2017; [2]) was 39% and the “s.c. ED50” value (Escherichia coli 2017; [2]) was 47 µg. The “% ED50” value (Escherichia coli 2017; [3]) was 17%, the “s.c. ED50” value (Escherichia coli 2017; [3]) was 20 µg and the “% ED50” value (Escherichia coli 2017; chloramphenicol repeat test, 7 LD50, phosphonomycin titrated, chloramphenicol constant 5) was 4%. The “% ED50” value (Escherichia coli 2017; chloramphenicol repeat test, 7 LD50, phosphonomycin titrated, chloramphenicol constant 50) was 42%, the “% ED50” value (Escherichia coli 2017; chloramphenicol test 1, 9 LD50, alone) was 100% and the “% ED50” value (Escherichia coli 2017; [4]) was 55%. For the same compound, the “s.c. ED50” value (Escherichia coli 2017; [4]) was 250 µg, the “% ED50” value (Escherichia coli 2017; [5]) was 24% and the “s.c. ED50” value (Escherichia coli 2017; [5]) was 107 µg. The “% ED50” value (Escherichia coli 2017; chloramphenicol test 1, 9 LD50, phosphonomycin titrated, chloramphenicol constant 3) was 1% and the “% ED50” value (Escherichia coli 2017; chloramphenicol test 1, 9 LD50, phosphonomycin titrated, chloramphenicol constant 30) was 7%.

With CN(C)C1C(=O)C(C(N)=O)=C(O)C2(O)C(=O)C3=C(O)c4c(O)cccc4C(C)(O)C3CC12 (centres unmarked) [Tetracycline] the “% ED50” value ([1]; alone) was 100%, the “s.c. ED50” value ([1]; alone, therapy at 0 and 6 hours, phosphonomycin as sodium salt) was 55 µg and the “% ED50” value [1, 6] was 36%. For the same compound, the “s.c. ED50” value [1, 6] was 35 µg, the “% ED50” value [1, 7] was 33% and the “s.c. ED50” value [1, 7] was 18 µg. For the same compound, the ED50 (Escherichia coli 2017; alone) was 50 γ, the “% of effective dose” value (Escherichia coli 2017; combination of 54% tetracycline with .5% sodium phosphonomycin) was 54% and the “% of effective dose” value (Escherichia coli 2017; phosphonomycin titrated in the presence of 0.5γ tetracycline) was 1%. The “% of effective dose” value (Escherichia coli 2017; tetracycline titrated in the presence of 50γ sodium phosphonomycin) was 25%, the ED50 (Escherichia coli 2017; titrated in the presence of 50γ sodium phosphonomycin) was 13 γ and the “% ED50” value (Escherichia coli 2017; tetracycline repeat test, 7 LD50, alone) was 100%. For the same compound, the “s.c. ED50” value (Escherichia coli 2017; tetracycline repeat test, 7 LD50, alone, single dose at 0 hour, phosphonomycin as sodium salt) was 31 µg, the “% ED50” value (Escherichia coli 2017; tetracycline repeat test, 7 LD50, phosphonomycin titrated, tetracycline constant 1) was 3% and the “% ED50” value (Escherichia coli 2017; tetracycline repeat test, 7 LD50, phosphonomycin titrated, tetracycline constant 10) was 32%. The “% ED50” value (Escherichia coli 2017; [8]) was 23%, the “s.c. ED50” value (Escherichia coli 2017; [8]) was 7 µg and the “% ED50” value (Escherichia coli 2017; [9]) was 100%. The “s.c. ED50” value (Escherichia coli 2017; [9]) was 31 µg, the “% ED50” value (Escherichia coli 2017; [10]) was 100% and the “% ED50, Combined %” value (Escherichia coli 2017; [10]) was 100%. For the same compound, the “s.c. ED50” value (Escherichia coli 2017; tetracycline test 1, 9 LD50, alone, single dose at 0 hour, phosphonomycin as sodium salt) was 50 µg, the “% ED50” value (Escherichia coli 2017; tetracycline test 1, 9 LD50, phosphonomycin titrated, tetracycline constant 0.5) was 1% and the “% ED50” value (Escherichia coli 2017; tetracycline test 1, 9 LD50, phosphonomycin titrated, tetracycline constant 5) was 10%. For the same compound, the “% ED50” value (Escherichia coli 2017; [11]) was 54%, the “s.c. ED50” value (Escherichia coli 2017; [11]) was 27 µg and the “% ED50” value (Escherichia coli 2017; [12]) was 25%. For the same compound, the “s.c. ED50” value (Escherichia coli 2017; [12]) was 13 µg and the “enhancement of tetracycline activity” value (Escherichia coli 2017; two tests, constant quantity of sodium phosphonomycin) was “enhanced”.
